Data taken from patent US7767659B2, “Synthesis of naturally occurring ecteinascidins and related compounds” (Pharma Mar, S.A., priority 2002, dated 2010).
Read-outs that look alike come from different tables or passages of the source.

Columns and labels:
A-549 = assay: cells; settings: for GI50: read-out: A549 GI50; for CC50: read-out: A549 LC50
Summary of the method: (§1)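 Colorimetric SRB read (490 nm) on triplicate wells after 48 h at 37 °C, 5% CO2. Dose range 10 to 10^−8 μg/ml; 5×10^3 cells/well pre-attached 18 h.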

HT-29 = assay: cells; settings: for GI50: read-out: HT29 GI50; for CC50: read-out: HT29 LC50
Summary of the method: as §1

LoVo = assay: cells; settings: for GI50: read-out: LOVO GI50; for CC50: read-out: LOVO LC50
Summary of the method: as §1

DU-145 = assay: Inhibition of cells growth by colorimetric assay (SRB); settings: for GI50: read-out: DU145 GI50; for CC50: read-out: DU145 LC50
Summary of the method: as §1

HeLa-APL = assay: as above; settings: for GI50: read-out: HELA-APL GI50; for CC50: read-out: HELA-APL LC50
Summary of the method: as §1

HeLa = assay: as above; settings: for GI50: read-out: HELA GI50; for CC50: read-out: HELA LC50
Summary of the method: as §1

IGROV-1 = assay: as above; settings: for GI50: read-out: IGROV GI50; for CC50: read-out: IGROV LC50
Summary of the method: as §1

IGROV-ET = assay: as above; settings: for GI50: read-out: IGROV-ET GI50; for CC50: read-out: IGROV-ET LC50
Summary of the method: as §1

K-562 = assay: as above; settings: for CC50: read-out: K562 LC50
Summary of the method: as §1

LNCaP = assay: as above; settings: for GI50: read-out: LNCAP GI50; for CC50: read-out: LNCAP LC50
Summary of the method: as §1

LoVo-Dox = assay: as above; settings: for GI50: read-out: LOVO-DOX GI50; for CC50: read-out: LOVO-DOX LC50
Summary of the method: as §1

PANC-1 = assay: as above; settings: for GI50: read-out: PANC-1 GI50; for CC50: read-out: PANC-1 LC50
Summary of the method: as §1

SK-BR-3 = assay: as above; settings: for CC50: read-out: SK-BR3 LC50
Summary of the method: as §1

SK-MEL-28 = assay: as above; settings: for GI50: read-out: MEL-28 GI50; for CC50: read-out: MEL-28 LC50
Summary of the method: as §1

[1] = HELA-APL, SRB, 48 hours exposure
[2] = IGROV-ET, SRB, 48 hours exposure
[3] = LOVO-DOX, SRB, 48 hours exposure

For `COc1ccc2[nH]c3c(c2c1)CCN[C@]31CS[C@@H]2c3c(OC(C)=O)c(C)c4c(c3[C@H](COC1=O)N1C2[C@@H]2N[C@@H](Cc3cc(C)c(OC)c(O)c32)[C@@H]1C#N)OCO4` (stereo partly shown) [compound 60], the GI50 (A-549; Homo sapiens, A549, 48 h) was 3.6 nM, the CC50 (A-549; Homo sapiens, A549, 48 h) was 76 nM and the IC (TGI) (A-549; Homo sapiens, A549, 48 h, read-out: A549 TGI) was 13.1 nM. For the same compound, the GI50 (HT-29; Homo sapiens, HT-29, 48 h) was 2.28 nM, the CC50 (HT-29; Homo sapiens, HT-29, 48 h) was 12800 nM and the IC (TGI) (HT-29; Homo sapiens, HT-29, 48 h, read-out: HT29 TGI) was 13.1 nM. It also gave a GI50 (LoVo; Homo sapiens, LoVo, 48 h) of 3.27 nM, a CC50 (LoVo; Homo sapiens, LoVo, 48 h) of 2900 nM and an IC (TGI) (LoVo; Homo sapiens, LoVo, 48 h, read-out: LOVO TGI) of 8.23 nM. For the same compound, the GI50 (DU-145; Homo sapiens, DU-145, 48 h) was 1.8 nM, the CC50 (DU-145; Homo sapiens, DU-145, 48 h) was 7130 nM and the IC (TGI) (DU-145; Homo sapiens, DU-145, 48 h, read-out: DU145 TGI) was 1360 nM. The GI50 (HeLa-APL; Homo sapiens, 48 h) was 1.37 nM, the CC50 (HeLa-APL; Homo sapiens, 48 h) was 9.27 nM and the IC (TGI) (HeLa-APL; Homo sapiens, 48 h, read-out: HELA-APL TGI) was 3.58 nM. It also gave a GI50 (HeLa; Homo sapiens, HeLa, 48 h) of 1.03 nM, a CC50 (HeLa; Homo sapiens, HeLa, 48 h) of 12.8 nM and an IC (TGI) (HeLa; Homo sapiens, HeLa, 48 h, read-out: HELA TGI) of 3.41 nM. The GI50 (IGROV-1; Homo sapiens, IGROV-1, 48 h) was 1.38 nM, the CC50 (IGROV-1; Homo sapiens, IGROV-1, 48 h) was 11.8 nM and the IC (TGI) (IGROV-1; Homo sapiens, IGROV-1, 48 h, read-out: IGROV TGI) was 4.03 nM. The GI50 (IGROV-ET; Homo sapiens, 48 h) was 20.9 nM, the CC50 (IGROV-ET; Homo sapiens, 48 h) was 2890 nM and the IC (TGI) (IGROV-ET; Homo sapiens, 48 h, read-out: IGROV-ET TGI) was 53.1 nM. It also gave a GI50 (K-562; Homo sapiens, K562, 48 h, read-out: K562 GI50) of 0.809 nM, a CC50 (K-562; Homo sapiens, K562, 48 h) of 8570 nM and an IC (TGI) (K-562; Homo sapiens, K562, 48 h, read-out: K562 TGI) of 13.2 nM. The GI50 (LNCaP; Homo sapiens, LNCaP, 48 h) was 0.415 nM, the CC50 (LNCaP; Homo sapiens, LNCaP, 48 h) was 5.03 nM and the IC (TGI) (LNCaP; Homo sapiens, LNCaP, 48 h, read-out: LNCAP TGI) was 1.42 nM. The GI50 (LoVo-Dox; Homo sapiens, 48 h) was 163 nM, the CC50 (LoVo-Dox; Homo sapiens, 48 h) was 12800 nM and the IC (TGI) (LoVo-Dox; Homo sapiens, 48 h, read-out: LOVO-DOX TGI) was 757 nM. It also gave a GI50 (PANC-1; Homo sapiens, PANC-1, 48 h) of 3.31 nM, a CC50 (PANC-1; Homo sapiens, PANC-1, 48 h) of 12800 nM and an IC (TGI) (PANC-1; Homo sapiens, PANC-1, 48 h, read-out: PANC-1 TGI) of 11.9 nM. The GI50 (SK-BR-3; Homo sapiens, SK-BR-3, 48 h, read-out: SK-BR3 GI50) was 0.431 nM, the CC50 (SK-BR-3; Homo sapiens, SK-BR-3, 48 h) was 42.2 nM and the IC (TGI) (SK-BR-3; Homo sapiens, SK-BR-3, 48 h, read-out: SK-BR3 TGI) was 1.22 nM. The GI50 (SK-MEL-28; Homo sapiens, SK-MEL-28, 48 h) was 1.91 nM, the CC50 (SK-MEL-28; Homo sapiens, SK-MEL-28, 48 h) was 9.55 nM and the IC (TGI) (SK-MEL-28; Homo sapiens, SK-MEL-28, 48 h, read-out: MEL-28 TGI) was 4.27 nM.

In the case of `COC1=C(C)C(=O)C2=C(C1=O)C1C3C4SCC(NC(C)=O)C(=O)OCC(c5c6c(c(C)c(OC(C)=O)c54)OCO6)N3C(O)C(C2)N1C` (stereo not shown) [ET-637-quinone, ecteinascidin 637 quinone], the “A549 TGI” value (A-549; A549, SRB, 48 hours exposure) is reported as 1.09E−08 Molar, the GI50 (A-549; A549, SRB, 48 hours exposure) is reported as 4.42 nM and the CC50 (A-549; A549, SRB, 48 hours exposure) is reported as 51.5 nM. The “HT29 TGI” value (HT-29; HT29, SRB, 48 hours exposure) was 7.78E−09 Molar, the GI50 (HT-29; HT29, SRB, 48 hours exposure) was 3.32 nM and the CC50 (HT-29; HT29, SRB, 48 hours exposure) was 2260 nM. For the same compound, the “LOVO TGI” value (LoVo; LOVO, SRB, 48 hours exposure) was 8.51E−09 Molar, the GI50 (LoVo; LOVO, SRB, 48 hours exposure) was 3.98 nM and the CC50 (LoVo; LOVO, SRB, 48 hours exposure) was 6080 nM. For the same compound, the “DU145 TGI” value (DU-145; DU145, SRB, 48 hours exposure) was 6.30E−09 Molar, the GI50 (DU-145; DU145, SRB, 48 hours exposure) was 3.74 nM and the CC50 (DU-145; DU145, SRB, 48 hours exposure) was 15.3 nM. For the same compound, the “HELA-APL TGI” value (HeLa-APL; [1]) was 5.12E−09 Molar, the GI50 (HeLa-APL; [1]) was 2.39 nM and the CC50 (HeLa-APL; [1]) was 10.9 nM. The “HELA TGI” value (HeLa; HELA, SRB, 48 hours exposure) was 4.88E−09 Molar, the GI50 (HeLa; HELA, SRB, 48 hours exposure) was 2.24 nM and the CC50 (HeLa; HELA, SRB, 48 hours exposure) was 10.6 nM. For the same compound, the “IGROV TGI” value (IGROV-1; IGROV, SRB, 48 hours exposure) was 5.80E−09 Molar, the GI50 (IGROV-1; IGROV, SRB, 48 hours exposure) was 2.76 nM and the CC50 (IGROV-1; IGROV, SRB, 48 hours exposure) was 12.1 nM. The “IGROV-ET TGI” value (IGROV-ET; [2]) was 6.91E−08 Molar, the GI50 (IGROV-ET; [2]) was 34.2 nM and the CC50 (IGROV-ET; [2]) was 139 nM. For the same compound, the “K562 TGI” value (K-562; K562, SRB, 48 hours exposure) was 1.97E−09 Molar, the CC50 (K-562; K562, SRB, 48 hours exposure) was 14.4 nM and the “LNCAP TGI” value (LNCaP; LNCAP, SRB, 48 hours exposure) was 3.64E−09 Molar. For the same compound, the GI50 (LNCaP; LNCAP, SRB, 48 hours exposure) was 1.78 nM, the CC50 (LNCaP; LNCAP, SRB, 48 hours exposure) was 7.44 nM and the “LOVO-DOX TGI” value (LoVo-Dox; [3]) was 9.62E−07 Molar. The GI50 (LoVo-Dox; [3]) was 262 nM, the CC50 (LoVo-Dox; [3]) was 90 nM and the “PANC-1 TGI” value (PANC-1; PANC-1, SRB, 48 hours exposure) was 8.24E−09 Molar. The GI50 (PANC-1; PANC-1, SRB, 48 hours exposure) was 3.72 nM, the CC50 (PANC-1; PANC-1, SRB, 48 hours exposure) was 3.42 nM and the “SK-BR3 TGI” value (SK-BR-3; SK-BR3, SRB, 48 hours exposure) was 2.67E−09 Molar. For the same compound, the CC50 (SK-BR-3; SK-BR3, SRB, 48 hours exposure) was 8.51 nM, the “MEL-28 TGI” value (SK-MEL-28; MEL-28, SRB, 48 hours exposure) was 5.34E−09 Molar and the GI50 (SK-MEL-28; MEL-28, SRB, 48 hours exposure) was 2.96 nM. For the same compound, the CC50 (SK-MEL-28; MEL-28, SRB, 48 hours exposure) was 9.61 nM.
